Assays:
[1] = Spectral properties of the dyes compared with commercially available dyes; format: physicochemical; conditions: reactive ester form of the dye
IMR90 cells = assay: Direct fluorescence labeling of cell surface proteins; format: cell-based, human; conditions: 6 μm, 3 μm, 1.5 μm, and 0.75 μm as printed; 30 min
Procedure: The inventive compounds and commercial dyes were evaluated in direct fluorescence labeling of cell surface proteins using the following protocol. DyLight 549-NHS, 550 Compound 1-NHS, and Whole Cell Stain Orange (Thermo Fisher Scientific) were reconstituted in DMF and diluted to 6 μM in Dulbecco's PBS (DPBS). A total of four 1:1 serial dilutions of the dyes were prepared in DPBS. Frozen IMR90 cells (human lung embryonic fibroblast) on a plate were thawed for 1 h at 37° C. The cell plates were washed two times with DPBS and incubated with dye dilutions for 30 min at room temperature protected from light. The cell plates were then washed three times with DPBS. The cell plates were incubated with 100 μl/well of 1 μg/ml Hoechst dye in DPBS. The cell plates were sealed and imaged using the Thermo Scientific ArrayScan VTI HCS Reader.
The inventive compounds and commercial dye were evaluated in direct fluorescence labeling of cell surface proteins. DyLight 649-NHS, 650 Compound 1-NHS, and Whole Cell Stain Orange (Thermo Fisher Scientific) were reconstituted in DMF and diluted to 6 μM in Dulbecco's PBS (DPBS). A total of four 1:1 serial dilutions of the dyes were prepared in DPBS. Frozen IMR90 cells (human lung embryonic fibroblast) on a plate were thawed for 1 h at 37° C. […] The cell plates were sealed and imaged using the Thermo Scientific ArrayScan VTI HCS Reader.

[2] = test system: mouse IgG, rabbit IgG, biotinylated bovine serum albumin (BBSA); assay: Functional assay, summary over GAM, GAR and SA conjugates; format: binding; conditions: compared with DyLight 549 or DyLight 649 conjugates
Procedure: Performance of the dye-GAM conjugates, dye-GAR conjugates, and dye-SA conjugates was evaluated in a functional assay. Wells of a 96 white opaque plate were coated with target proteins mouse IgG immunoglobulin, rabbit IgG immunoglobulin, or biotinylated bovine serum albumin (BBSA). One hundred μl mouse or rabbit IgG or BBSA at a concentration of 10 μg/ml was applied to the corresponding wells in columns 1 and 2. The target proteins were serially diluted 1:1 from the wells in columns 2 to 11 using 100 μl PBS. One hundred 100 μl of the samples from the wells in column 11 were discarded. One hundred μl PBS was added to the wells in column 12. The plates were incubated overnight at 4° C. and then blocked 2×200 μl with Thermo Scientific SuperBlock® Blocking Buffer. The coated plates were washed 2×200 μl with PBS-Tween and 1×200 μl with PBS. Conjugates diluted in PBS to 4 μg/ml were added to the corresponding plates (100 μl/well) and then incubated for 1 h in the dark. The plates were washed with 2×200 μl with PBS-Tween and 1×200 μl with PBS and filled with PBS buffer (100 μl/well) prior to scanning on Tecan Safire using 562 nmexcitation/576 nmemission to detect fluorescence intensity.
Performance of the dye-GAM conjugates and dye-GAR conjugates was evaluated in a functional assay. Wells of a 96 well white opaque plate were coated with mouse IgG, or rabbit IgG. One hundred μl mouse or rabbit IgG at a concentration of 10 μg/ml was applied to the corresponding wells in columns 1 and 2. The IgG proteins were serially diluted 1:1 from the wells in columns 2 to 11 using 100 μl PBS. One hundred 100 μl of the samples from the wells in column 11 were discarded. One hundred μl PBS was added to the wells in column 12. […] The plates were washed with 2×200 μl with PBS-Tween and 1×200 μl with PBS and filled with PBS buffer (100 μl/well) prior to scanning on Tecan Safire using the Alexa 647 setting (650 nmexcitation/665 nmemission) and the DyLight 649 setting (654 nmexcitation/673 nmemission to detect fluorescence intensity

U2OS cells; A550 cells = assay: Immunofluorescence cell based assays, summary statements; parameters: species or system human; conditions: GAM and GAR conjugates
Procedure: The inventive compounds and commercial dye were evaluated for immunofluorescence in cell based assays using the following protocol. Plates containing U2OS cells (human osteosarcoma cell line) were fixed in 4% paraformaldehyde in PBS/0.1% Triton X-100 for 15 min at room temperature. The cells were then permeabilized with 2% BSA in PBS/0.1% Triton X-100 for 30 min at room temperature. Diluted primary antibodies in PBS/0.1% Triton X-100 were added to the plates and incubated overnight at 4° C. The plates were washed 3×100 μl with PBS. Based on the calculated protein concentrations, the conjugates were diluted to 4 μg/ml (1:250 from 1 mg/ml stock) in PBS/0.1% Triton X-100 and added to the plates (50 μl/well) and incubated 1 h in the dark at room temperature. The plates were washed 3×100 μl with PBS. One hundred μl of 2 μg/ml Hoechst dye in PBS was added per well. The plates were then scanned on an ArrayScan® Plate Reader for imaging and quantitation.
The inventive compounds and commercial dyes were evaluated for immunofluorescence in cell based assays using the following protocol. Plates containing A550 cells (adenocarcinoma human alveolar basal epithelial cells, P5, Sep. 23, 2010) and stored at −80° C. were placed at 50° C. for 30 min. The storage buffer (PBS) was removed and then the cells were permeabilized for 15 min (100 μl/well) with 0.1% Triton-X100 in 1×PBS buffer. The plates were blocked for 30 min in 2% BSA in 1×PBS-0.1% Triton-X100 and then incubated with primary antibodies diluted in 2% BSA in 1×PBS, 0.1% Trion-X100, overnight at 4° C. […] The remaining wells were incubated in blocking buffer only (no primary antibody). After overnight incubation, the antibody solution was removed from the wells, and the plates were washed with PBS-Tween (2×100 μl/well). The labeled secondary antibody conjugates, diluted to 4 μg/ml in PBS were added to corresponding wells and incubated for 1 h at room temperature (about 20° C. to about 22° C.). The plates were washed 3×100 μl/well with PBS and Hoechst stain diluted 1 μg/ml in PBS were added to each well (100 μl/well) of each plate. The plates were then scanned on the Thermo Scientific ArrayScan® HCS Reader for imaging and quantitation.

streptavidin (SA) [3] = biological target: T1, streptavidin (SA) (Streptomyces avidinii, UniProt P22629); assay: Labeling efficiency (degree of labeling, mole dye to mole protein ratio) of streptavidin; conditions: SA, NHS ester, 5X molar excess
Procedure: Inventive and commercial compounds, each as the NHS ester, were conjugated to goat anti-mouse (GAM), goat anti-rabbit (GAR) antibodies, and streptavidin (SA). GAM, GAR, and SA, at 10 mg/ml in phosphate buffered saline (PBS), were dialyzed against 50 mM borate buffer, pH 8.5. The compounds were reconstituted in dimethylformamide (DMF) at 10 mg/ml and combined at 2×, 4×, 5×, 7.5×, or 10× molar excess with GAM, GAR, or SA for 2 h at room temperature to label the antibodies or SA.
The labeled compounds, also termed dyes or labels, were subjected to PDDR to remove the unlabeled (free) compound; 100 μl of the packed resin was used per mg of protein purified. The purified antibody-labeled dyes were then diluted 1:50 in PBS and scanned for absorbance from 700 nm to 230 nm to determine the protein concentration, and to determine the mole dye to mole protein ratio. Each conjugate was diluted 1:10 in 50% glycerol and heated in the presence of 10 mM dithiothreitol (DTT) for 5 min at 95° C., then separated by electrophoresis on polyacrylamide gels in the presence of sodium dodecyl sulfate (SDS-PAGE). The gels were scanned using the Typhoon 9400 Imager to verify removal of the unconjugated compound. Labeling efficiency was compared, with results showing degree of labeling below.
Compounds 1, 2, and 3, each as the NHS ester, and DyLight 649-NHS were conjugated to goat anti-mouse (GAM) and goat anti-rabbit (GAR) antibodies. GAM and GAR, at a concentration of 10 mg/ml in phosphate buffered saline (PBS), were dialyzed against 50 mM borate buffer, pH 8.5. The compounds were reconstituted in dimethylformamide (DMF) at 10 mg/ml. To label the antibodies, the compounds were added at 2.5× molar excess and 5× molar excess for 2 h at room temperature. Streptavidin (SA) was reconstituted in PBS buffer, pH 7.2, and 50 mM borate buffer, pH 8.5, and labeled with 2.5× molar excess and 4× molar excess of the compound.
The antibody-labeled compounds, also termed dyes or labels, were subjected to gel filtration chromatography (15 cm×0.8 cm columns) or to the PDDR to remove the unlabeled (free) compound; 100 μl of the packed resin was used per mg of protein purified. The purified antibody-labeled dyes were then diluted 1:100 in PBS and scanned for absorbance from 700 nm to 230 nm to determine the protein concentration, and to determine the mole dye to mole protein ratio. Each conjugate was diluted 1:10 in 50% glycerol and heated in the presence of 10 mM dithiothreitol (DTT) for 5 min at 95° C., then separated by electrophoresis on polyacrylamide gels in the presence of sodium dodecyl sulfate (SDS-PAGE). The gels were scanned using the Typhoon 9400 Imager to verify removal of the unconjugated compound. Labeling efficiency was compared using labeling of the compounds to GAM antibody at a 2.5× molar excess of compound, with results shown below.
Labeling efficiency was also compared using labeling of the dyes to streptavidin (SA) at either a 2.5 fold or a 4 fold molar excess of the dye, with SA in PBS, pH 7.2, and borate buffer, pH 8.5.
650 Compound 1 (isomer 2)-TFP, 650 Compound 1 (isomer 1)-TFP, 650 Compound 1 (isomer 2)-TFP, 650 Compound 1-NHS, and DyLight 649-NHS were conjugated to GAM, GAR, and SA. GAM and GAR, at a concentration of 10 mg/ml in phosphate buffered saline (PBS), were dialyzed against 50 mM borate buffer, pH 8.5. The compounds were reconstituted in dimethylformamide (DMF) at 10 mg/ml and used to label antibodies at 5× molar excess of compound for two hours at room temperature to label the antibodies. SA was reconstituted in 50 mM borate buffer, pH 8.5, and combined with 4× molar excess to label the SA.
The antibody-conjugated and SA-conjugated compounds, also termed dyes or labels, were subjected to the PDDR to remove the unlabeled (free) compound. The purified antibodies and SA were then diluted 1:25 in PBS and scanned for absorbance from 700 nm to 230 nm to determine the protein concentration, and to determine the mole dye to mole protein ratio. […]

streptavidin (SA) [4] = biological target: T1, streptavidin (SA); assay: as above; conditions: NHS ester, 3X molar excess

T1 sequence (P22629 25-183, species assumed): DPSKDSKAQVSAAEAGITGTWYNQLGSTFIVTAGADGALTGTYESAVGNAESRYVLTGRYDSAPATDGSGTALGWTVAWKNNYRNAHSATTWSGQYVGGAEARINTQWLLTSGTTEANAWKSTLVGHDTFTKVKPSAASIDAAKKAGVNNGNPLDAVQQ

COCCN1/C(=C/C=C/C2=[N+](CCCCCC(=O)ON3C(=O)CCC3=O)c3ccc(S(=O)(=O)[O-])cc3C2(C)CCCS(=O)(=O)O)C(C)(CCCS(=O)(=O)O)c2cc(S(=O)(=O)O)ccc21 (stereo not shown) [550 Compound 1-NHS]
Emission (Em) [1]: 572 nm | Excitation (Ex) [1]: 557 nm | ε [1]: 142,000 M−1cm−1 | Performance in direct fluorescence labeling of cell surface proteins (IMR90 cells): performed equivalently as DyLight 549-NHS

COCCOCCOCC[N+]1=C(/C=C/C=C/C=C2/N(CCCCCC(=O)O)c3ccc(S(=O)(=O)O)cc3C2(C)CCCS(=O)(=O)O)C(C)(CCCS(=O)(=O)O)c2cc(S(=O)(=O)O)ccc21.[Na+].[Na+].[Na+] (stereo not shown) [650 Compound 3, 2-{(1E,3E)-5-[1-(5-carboxypentyl)-3-methyl-5-sulfo-3-(3-sulfopropyl)-1,3-dihydro-indol-(2E)-ylidene]-penta-1,3-dienyl}-1-{2-[2-(2-methoxy-ethoxy)-ethoxy]-ethyl}-3-methyl-5-sulfo-3-(3-sulfopropyl)-3H-indolium tri sodium salt]
Performance of conjugates (GAM, GAR, SA) in the functional assay in terms of signal-to-noise [2]: superior to DyLight 649 conjugates | Immunofluorescence performance of conjugates compared with commercial DyLight dye (U2OS cells; A550 cells): at least similar performance to DyLight 649 conjugates (GAM, GAR), and in some cases superior performance

Alexa 750-SA: Alexa 750 conjugated to streptavidin (SA) [reference compound]
D/P 5X (streptavidin (SA) [3]): 4.7 | D/P 3X (streptavidin (SA) [4]): 3.3

DyLight 750-SA: DyLight 750 conjugated to streptavidin (SA) [reference compound]
D/P 5X (streptavidin (SA) [3]): 4.0 | D/P 3X (streptavidin (SA) [4]): 2.5

From patent publication US10053447B2, “Fluorescent compounds” (Pierce Biotechnology, Inc, priority 2010, dated 2018)
